Where a SMILES comes first, the peptide text is derived from it. Bridges are numbered along the chain shown (N, C = ends).
Experiments:
[1] = test system: HUVEC monolayer; assay: Migration across HUVEC monolayer on transmigration inserts; assay type: in vitro ADME, human; settings: 3 h
Procedure: (§1) For viability and cytotoxicity studies, cells were seeded in 96-well flat-bottom culture plates (1 × 10^4 cells/well). To determine migration of nisin A, plantaricin 423 and bacST4SA across the gastrointestinal epithelial and vascular endothelial barriers, HUVEC and Caco-2 cells were grown on an 8 µm pore size tissue culture insert, as shown in Fig. 1. All cell culture experiments were done in triplicate and have been repeated more than three times.
(§2) HUVECs and Caco-2 cells were seeded onto transmigration inserts (Fig. 1) at a cell density of 1 × 10^5 cells/insert (200 µL). Inserts were carefully placed in a 24-well tissue culture plate containing 700 µL cell growth media. […] The integrity of the monolayers was monitored by ensuring trans-epithelial electrical resistance (TEER) readings remained above 300 Ω throughout the experiment (Millicell-ERS volt-ohm meter, Merck)[51],[52],[62]. […] Transmigration inserts containing no monolayer, was used to determine the total fluorescence. Samples were incubated for 3 h while absorbance was measured at 490 nm every 30 min using a microplate reader. Before each reading, inserts were removed and placed into new microplates containing fresh media. […]
(§3) The percentage of peptide that attached to, or entered the cells was quantified by subtracting the sum of migrated peptide (eq. 4) and retained peptide (eq. 5) from the total fluorescence. […]

[2] = test system: Caco-2 cells; assay: Neutral red viability assay, Caco-2; assay type: cell-based, human; settings: 24 h, 37 °C
Procedure: as §1
(§4) Cells were treated with different concentrations of the peptides as described for the XTT assay. Sterile ultrapure water was used as control. After incubation at 37 °C for 24 h, neutral red solution was added to the cells (10% of the culture volume). After 4 h of incubation at 37 °C, the medium was removed by aspiration and the cells were rinsed with neutral red fixative. The fixative was removed, the dye solubilized by adding […] and the cells were gently stirred for 10 min on a gyratory shaker. Absorbance readings were recorded at 540 nm and 690 nm, respectively, using a microtiter plate reader. The percentage viability was calculated as the absorbance of treated cells divided by the absorbance of untreated cells (AT/AC × 100).

[3] = test system: Caco-2 cell monolayer; assay: Migration across Caco-2 monolayer on transmigration inserts; assay type: in vitro ADME, human; settings: 3 h
Procedure: as §1, §2, §3

[4] = test system: L. monocytogenes EGDe; assay: Antimicrobial activity of NHS-fluorescein labelled versus unlabelled peptides (zone sizes); assay type: cell-based, Listeria monocytogenes; settings: 50 µM, 20 µL spotted on LEB agar seeded with L. monocytogenes EGDe, overnight 37 °C
Procedure: HPLC purified stock solutions of nisin A, plantaricin 423 and bacST4SA were prepared by dissolving the peptides in sterile ultrapure water. Immediately before conjugating NHS-fluorescein to the peptides, a stock solution of NHS-fluorescein was prepared by dissolving 1 mg of reagent in 100 µL DMF. The amount of NHS-fluorescein to be added to each peptide was calculated using the Eqs (2) and (3):2 mLpeptide×mgpeptide/mLpeptide×mmolpeptide/mgpeptide×15mmolNHS/mmolpeptide=mmolNHS 3 mmolNHS×473.4(MWofNHS)/mmolNHS×100µLDMF/1mg=µLNHS
The calculated concentration of NHS-fluorescein was added to the peptides and incubated on ice for 2 h. Non-reacted NHS-fluorescein was removed by Sep-Pak C18 column chromatography. Plantaricin 423 and bacST4SA were eluted with 60% acetonitrile containing 0.1% TFA and nisin A with 40% acetonitrile containing 0.1% TFA. Peptides were freeze dried and resuspended in sterile ultrapure water. Concentrations of the labelled peptides were determined with the BCA assay and diluted to 50 µM. Labelled peptides were filtered through a 0.45 µm HVLP membrane and spotted (20 µL) onto LEB agar seeded with 1% L. monocytogenes EGDe (OD600 0.1). Plates were incubated overnight at 37 °C and the fluorescent peptides visualised under a UVP 3UV Ultraviolet Lamp. Inhibition zones were measured using ImageJ software and compared to those of non-labelled peptides.

[5] = test system: Caco-2 cells; assay: XTT viability assay, Caco-2; assay type: cell-based, human; settings: 24 h, 37 °C
Procedure: as §1
(§5) Cells were grown in 100 µL of culture medium for 24 h at 37 °C. The bacteriocins were separately added to the cells at concentrations of 25 µM, 50 µM and 100 µM. Sterile ultrapure water was used as control. After 24 h of incubation at 37 °C, the reaction mixture containing PMS (N-methyl-dibenzopyrazine-methylsulfate/phenazine methosulphate) and XTT solution, was added to each well and incubated for 4 h at 37 °C. Absorbance readings were recorded at 450 nm, using a microtiter plate reader. The percentage viability was calculated as AT/AC × 100; where AT is the absorbance of peptide-treated cells and AC is the absorbance of control (untreated cells).

[6] = test system: HUVEC; assay: XTT viability assay, HUVEC; assay type: cell-based, human; settings: 24 h, 37 °C
Procedure: as §1, §5

[7] = test system: HUVEC; assay: Neutral red viability assay, HUVEC; assay type: cell-based, human; settings: 24 h, 37 °C
Procedure: as §1, §4

CC(C)C[C@@H]1NC(=O)[C@H](Cc2c[nH]cn2)NC(=O)[C@H](CO)NC(=O)[C@H](C(C)C)NC(=O)[C@H](CO)NC(=O)[C@@H](NC(=O)[C@H](CO)NC(=O)[C@H](Cc2ccccc2)NC(=O)[C@H](C)NC(=O)[C@H](CCC(N)=O)NC(=O)CNC(=O)[C@H](Cc2c[nH]c3ccccc23)NC(=O)[C@H](CC(N)=O)NC(=O)[C@@H](NC(=O)[C@H](CO)NC(=O)[C@@H]2CSSC[C@H](NC(=O)[C@@H](NC(=O)[C@@H](NC(=O)CNC(=O)[C@H](CC(N)=O)NC(=O)CNC(=O)[C@H](Cc3ccc(O)cc3)NC(=O)[C@H](Cc3ccc(O)cc3)NC(=O)[C@@H](N)CCCCN)C(C)C)[C@@H](C)O)C(=O)NCC(=O)N[C@@H](CCCCN)C(=O)N[C@@H](Cc3c[nH]cn3)C(=O)N[C@@H](CO)C(=O)N2)C(C)C)CSSC[C@@H](C(=O)O)NC(=O)[C@H](CCCCN)NC(=O)CNC(=O)[C@H](Cc2c[nH]cn2)NC(=O)CNC(=O)[C@H](Cc2ccccc2)NC(=O)[C@H](CC(N)=O)NC(=O)[C@H](C)NC1=O [plantaricin 423] (H-KYYGNGVTCGKHSCSVNWGQAFSCSVSHLANFGHGKC-OH; disulfide 9-14, 24-37; N-terminus and C-terminus assumed)
migrated peptide ([1]; HUVEC monolayer on 8 µm pore insert, apical addition, NHS-fluorescein labelled peptide 50 µM, 37 °C, TEER above 300 Ω, read at 490 nm, % of no-monolayer control, triplicate): 93%
percentage attached and/or entered peptide ([1]; HUVEC, labelled peptide 50 µM, total fluorescence minus migrated and residual peptide): 0%
cell viability (neutral red) ([2]; Caco-2, 25 µM and 50 µM (up to 50 µM)): did not cause significant decreases
cell viability (neutral red) ([2]; Caco-2, 100 µM): slight reduction
percentage attached and/or entered peptide ([3]; Caco-2, labelled peptide 50 µM, total fluorescence minus migrated and residual peptide): 11%
migrated peptide ([3]; Caco-2 monolayer on 8 µm pore insert, apical addition, NHS-fluorescein labelled peptide 50 µM, 37 °C, TEER above 300 Ω, read at 490 nm, % of no-monolayer control, triplicate): 85%
decrease in activity of labelled versus unlabelled peptide (antimicrobial zone sizes) [4]: 24%
cell viability (XTT) ([5]; Caco-2, 25 µM and 50 µM (up to 50 µM), absorbance 450 nm): did not cause significant decreases
cell viability (XTT) ([5]; Caco-2, 100 µM): slight reduction
cell viability (XTT) ([6]; 25 µM and 50 µM (up to 50 µM), absorbance 450 nm): did not cause significant decreases
cell viability (XTT) ([6]; 100 µM): slight reduction
cell viability (neutral red) ([7]; 25 µM and 50 µM (up to 50 µM)): did not cause significant decreases
cell viability (neutral red) ([7]; 100 µM): slight reduction

From PMC6685951, “Migration of Bacteriocins Across Gastrointestinal Epithelial and Vascular Endothelial Cells, as Determined Using In Vitro Simulations” (Scientific Reports, 2019)
